Measured values as given in ChEMBL document CHEMBL1201862, “PubChem BioAssay data set” (2004).
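48-hour exposure; five concentrations; linearly interpolated endpoints. Here, GI50 denotes the concentration required for 50% inhibition of growth.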 Active and inactive are the calls of the source. Cut-off read from the data, not from the text of the source: active = GI50 up to about 1.1 µM and inactive = higher.

Columns and labels:
Assay in all cases: NCI tumour cell line growth inhibition, 48 h
CAKI-1 = tested on: CAKI-1
HCC 2998 = tested on: HCC 2998
HOP-92 = tested on: HOP-92
HT-29 = tested on: HT-29
LOX IMVI = tested on: LOX IMVI
Malme-3M = tested on: Malme-3M
NCI-H226 = tested on: NCI-H226
NCI-H460 = tested on: NCI-H460
NCI-H522 = tested on: NCI-H522
OVCAR-3 = tested on: OVCAR-3
RXF 393 = tested on: RXF 393
SF-268 = tested on: SF-268
SK-OV-3 = tested on: SK-OV-3
SN12C = tested on: SN12C
UACC-257 = tested on: UACC-257
UO-31 = tested on: UO-31
MCF7 = tested on: MCF7
MDA-MB-231 = tested on: MDA-MB-231
MDA-MB-435 = tested on: MDA-MB-435
Hs-578T = tested on: Hs-578T

Compound | GI50 (CAKI-1) | GI50 (HCC 2998) | GI50 (HOP-92) | GI50 (HT-29) | GI50 (LOX IMVI) | GI50 (Malme-3M) | GI50 (NCI-H226) | GI50 (NCI-H460) | GI50 (NCI-H522) | GI50 (OVCAR-3) | GI50 (RXF 393) | GI50 (SF-268) | GI50 (SK-OV-3) | GI50 (SN12C) | GI50 (UACC-257) | GI50 (UO-31) | GI50 (MCF7) | GI50 (MDA-MB-231) | GI50 (MDA-MB-435) | GI50 (Hs-578T)
O=C(O)c1cc2c3ccccc3nc-2c[nH]1 | > 100 µM (inactive) | > 100 µM (inactive) | > 100 µM (inactive) | > 100 µM (inactive) | > 100 µM (inactive) | > 100 µM (inactive) | > 100 µM (inactive) | > 100 µM (inactive) | > 100 µM (inactive) | > 100 µM (inactive) | > 100 µM (inactive) | > 100 µM (inactive) | > 100 µM (inactive) | > 100 µM (inactive) | > 100 µM (inactive) | > 100 µM (inactive) | – | – | – | –
Cc1cc2c(cc1C)[n+]([O-])c(C(=O)CC(=O)C(=O)Nc1ccccc1C)c(C)[n+]2[O-] | > 100 µM (inactive) | > 100 µM (inactive) | > 100 µM (inactive) | > 100 µM (inactive) | > 100 µM (inactive) | > 100 µM (inactive) | > 100 µM (inactive) | 80.5 µM (inactive) | 54 µM (inactive) | > 100 µM (inactive) | > 100 µM (inactive) | > 100 µM (inactive) | > 100 µM (inactive) | > 100 µM (inactive) | > 100 µM (inactive) | 96.6 µM (inactive) | – | – | – | –
CCOc1ccc(Nc2nc(C)c(C(=O)/C=C/c3ccc(Cl)cc3Cl)s2)cc1 | 27.1 µM (inactive) | 23.9 µM (inactive) | 30 µM (inactive) | 19.7 µM (inactive) | 16.8 µM (inactive) | 26.3 µM (inactive) | 18.2 µM (inactive) | 21.4 µM (inactive) | 21.1 µM (inactive) | 20.2 µM (inactive) | 17.7 µM (inactive) | 24.7 µM (inactive) | 28.6 µM (inactive) | 19.3 µM (inactive) | 24.6 µM (inactive) | 25.2 µM (inactive) | – | – | – | –
Oc1ccc(Br)cc1/C=N/c1c(NC2CCCCC2)oc2ccc(Br)cc12 | 36.8 µM (inactive) | 35.8 µM (inactive) | – | 26.8 µM (inactive) | 18.3 µM (inactive) | 31.7 µM (inactive) | 45.3 µM (inactive) | 50.5 µM (inactive) | – | 18.2 µM (inactive) | 12.9 µM (inactive) | 33.2 µM (inactive) | 87.5 µM (inactive) | 44.4 µM (inactive) | 37.8 µM (inactive) | 31 µM (inactive) | 16.2 µM (inactive) | 61.5 µM (inactive) | 35.5 µM (inactive) | –
CC(=O)/C(=C\n1c(=S)[nH]c2ccc([N+](=O)[O-])cc21)C(=O)Nc1ccccc1C | > 100 µM (inactive) | > 100 µM (inactive) | – | > 100 µM (inactive) | > 100 µM (inactive) | > 100 µM (inactive) | > 100 µM (inactive) | > 100 µM (inactive) | > 100 µM (inactive) | > 100 µM (inactive) | > 100 µM (inactive) | – | > 100 µM (inactive) | > 100 µM (inactive) | > 100 µM (inactive) | – | > 100 µM (inactive) | > 100 µM (inactive) | > 100 µM (inactive) | –
N#C/C(=C/c1ccsc1)C(=O)c1ccccc1 | > 100 µM (inactive) | > 100 µM (inactive) | > 100 µM (inactive) | > 100 µM (inactive) | > 100 µM (inactive) | > 100 µM (inactive) | > 100 µM (inactive) | > 100 µM (inactive) | > 100 µM (inactive) | > 100 µM (inactive) | > 100 µM (inactive) | > 100 µM (inactive) | > 100 µM (inactive) | > 100 µM (inactive) | > 100 µM (inactive) | > 100 µM (inactive) | – | – | – | –
O=C(N/C(=C/c1cccc([N+](=O)[O-])c1)c1nc2cc(Cl)ccc2[nH]1)c1ccccc1 | 11.1 µM (inactive) | 23.1 µM (inactive) | 19.1 µM (inactive) | 8.95 µM (inactive) | 4.53 µM (inactive) | 12.8 µM (inactive) | 24.4 µM (inactive) | 10.4 µM (inactive) | 4.07 µM (inactive) | 19.6 µM (inactive) | 12.4 µM (inactive) | 11.7 µM (inactive) | 17.3 µM (inactive) | 14.3 µM (inactive) | 43.8 µM (inactive) | 2.18 µM (inactive) | – | – | – | –
CCCCCCN(CCCCCC)C1=CC(=O)C(=O)c2ccccc21 | 15 µM (inactive) | 20.9 µM (inactive) | 14.5 µM (inactive) | 15.1 µM (inactive) | 8.49 µM (inactive) | 21.3 µM (inactive) | 17.3 µM (inactive) | 17.3 µM (inactive) | 11.6 µM (inactive) | 3.55 µM (inactive) | 25.1 µM (inactive) | 18.7 µM (inactive) | 17.7 µM (inactive) | 16.4 µM (inactive) | 15.2 µM (inactive) | 13.4 µM (inactive) | – | – | – | –
CNC(=O)N(CCC#N)CCCN(C(=O)NC)c1ccccc1 | > 100 µM (inactive) | > 100 µM (inactive) | > 100 µM (inactive) | > 100 µM (inactive) | > 100 µM (inactive) | 51.4 µM (inactive) | > 100 µM (inactive) | > 100 µM (inactive) | > 100 µM (inactive) | > 100 µM (inactive) | > 100 µM (inactive) | – | > 100 µM (inactive) | > 100 µM (inactive) | > 100 µM (inactive) | > 100 µM (inactive) | > 100 µM (inactive) | > 100 µM (inactive) | > 100 µM (inactive) | –
COC(=O)CCC(=O)CC(=O)C(=O)Nc1ccc(F)cc1 | > 100 µM (inactive) | > 100 µM (inactive) | > 100 µM (inactive) | > 100 µM (inactive) | > 100 µM (inactive) | > 100 µM (inactive) | > 100 µM (inactive) | > 100 µM (inactive) | > 100 µM (inactive) | > 100 µM (inactive) | 54 µM (inactive) | > 100 µM (inactive) | > 100 µM (inactive) | > 100 µM (inactive) | > 100 µM (inactive) | > 100 µM (inactive) | – | – | – | –
Fc1ccc(F)c(/C=N/C23CC4CC(CC(C4)C2)C3)c1 | > 10 µM (inactive) | > 10 µM (inactive) | > 10 µM (inactive) | > 10 µM (inactive) | > 10 µM (inactive) | > 10 µM (inactive) | > 10 µM (inactive) | > 10 µM (inactive) | > 10 µM (inactive) | > 10 µM (inactive) | > 10 µM (inactive) | > 10 µM (inactive) | > 10 µM (inactive) | > 10 µM (inactive) | > 10 µM (inactive) | > 10 µM (inactive) | > 10 µM (inactive) | – | – | > 10 µM (inactive)
CC(C)(C)OC(=O)NCCc1cccc2c1oc1c(CCC(=O)O)cccc12 | > 100 µM (inactive) | > 100 µM (inactive) | > 100 µM (inactive) | > 100 µM (inactive) | > 100 µM (inactive) | > 100 µM (inactive) | > 100 µM (inactive) | > 100 µM (inactive) | > 100 µM (inactive) | 50.7 µM (inactive) | > 100 µM (inactive) | > 100 µM (inactive) | > 100 µM (inactive) | > 100 µM (inactive) | > 100 µM (inactive) | > 100 µM (inactive) | – | – | – | –
O=C(NCCCCNCCCNC(=O)OCc1ccccc1)OCc1ccccc1 | – | 19.5 µM (inactive) | 22.7 µM (inactive) | 18 µM (inactive) | – | – | 32 µM (inactive) | 23.6 µM (inactive) | 21.2 µM (inactive) | > 100 µM (inactive) | 16.5 µM (inactive) | 69.5 µM (inactive) | 69.7 µM (inactive) | 85.3 µM (inactive) | 19.2 µM (inactive) | 24.2 µM (inactive) | 24.5 µM (inactive) | – | 33.4 µM (inactive) | 31.8 µM (inactive)
C=C1CC2CC[C@@]34C[C@@H]5O[C@@H]6C(O[C@H]7CC[C@H](CC(=O)OC8[C@@H](C)C9OC%10C[C@]%11(C[C@@H]%12O[C@@]%13(C[C@@H](C)[C@@H]%12O%11)C[C@H](C)[C@@H]%11OC%12CC(C(O)CO)OC%12C[C@@H]%11O%13)OC%10CC9O[C@H]8C[C@H]8O[C@@H](CC[C@@H]1O2)C[C@@H](C)C8=C)O[C@@H]7[C@@H]6O3)C5O4 (stereo partly drawn) | 0.000484 µM (active) | 0.00225 µM (active) | 0.00236 µM (active) | 0.000357 µM (active) | 0.000469 µM (active) | 0.000904 µM (active) | 0.00179 µM (active) | 8.26e-05 µM (active) | 0.000213 µM (active) | 0.000279 µM (active) | 0.000685 µM (active) | 0.00229 µM (active) | 0.00166 µM (active) | 0.00313 µM (active) | 0.000262 µM (active) | 0.00673 µM (active) | 0.000148 µM (active) | – | – | –
CN(C)c1cccc(-c2cc(O)c3cc4c(cc3n2)OCO4)c1 | > 100 µM (inactive) | 0.193 µM (active) | 2.15 µM (inactive) | 0.202 µM (active) | 0.192 µM (active) | 0.131 µM (active) | 0.315 µM (active) | 0.278 µM (active) | 0.0505 µM (active) | 0.0807 µM (active) | 0.241 µM (active) | 0.327 µM (active) | 0.123 µM (active) | 0.632 µM (active) | 0.916 µM (active) | 0.667 µM (active) | – | – | – | –
CC1OC(=O)C(C(C)C)NC(=O)C(C(C)C)OC(=O)C(C(C)C)NC(=O)C(C)OC(=O)C(C(C)C)NC(=O)C(C(C)C)OC(=O)C(C(C)C)NC(=O)C(C)OC(=O)C(C(C)C)NC(=O)C(C(C)C)OC(=O)C(C(C)C)NC1=O (stereo not drawn) | 0.00288 µM (active) | 0.00256 µM (active) | 0.00255 µM (active) | 0.0025 µM (active) | 0.00538 µM (active) | 0.0025 µM (active) | – | 0.00279 µM (active) | – | 0.0025 µM (active) | 0.00324 µM (active) | 0.00314 µM (active) | 0.00326 µM (active) | 0.00273 µM (active) | 0.0025 µM (active) | 0.00281 µM (active) | 0.0025 µM (active) | < 0.0001 µM (active) | < 0.0001 µM (active) | –
